Reference: patent US9056843B2, “Trifluoromethyl-oxadiazole derivatives and their use in the treatment of disease” (NOVARTIS AG, priority 2011, dated 2015)

Columns and labels:
Format in all cases: biochemical
[1] = target: Human recombinant full length HDAC6 (Homo sapiens (Human), UniProt Q9UBN7); assay: Test 4: HDAC6 assay; settings: Test 4; substrate 5 μM acetyl-Gly-Ala-Lys(acetyl)-AMC
Experimental: (§1) Control wells with HDAC4 only (positive control) and without HDAC4 (negative control) were included on the microplate. Bovine trypsin (4.5 μl of a 300 nM solution) was added and the plate incubated for additional 15 minutes at room temperature. The plate was placed in a fluorescence microplate reader, and read at an excitation wavelength of 360 nm and an emission wavelength of 450 nm with a 10 nm bandpath. Fluorescence values for all wells containing HDAC4 (positive control and wells with test compound) were corrected by subtracting negative control fluorescence values, and IC50 values were calculated by fitting the dose-response curves to a 4-parameter logistic function.
Test 4: HDAC6 Assay Description
A similar assay procedure as described in Test 2 was used for HDAC6. Human recombinant full length HDAC6 expressed in a baculovirus expression system was purchased from BPS BioSciences (San Diego, Calif., U.S.A.). The substrate used in the […] assay was 5 μM of acetyl-Gly-Ala-Lys(acetyl)-AMC.

[2] = target: Human recombinant HDAC4 (Homo sapiens (Human), UniProt P56524); assay: Test 2: HDAC4 assay (fluorogenic substrate, 5 μM acetyl-Gly-Ala-Lys(ε-trifluoroacetyl)-AMC); settings: Test 2 (values without asterisk)
Experimental: Test 2: HDAC4 Assay Description
as §1

[3] = target: Human recombinant full length HDAC1 (Homo sapiens (Human), UniProt Q13547); assay: Test 3: HDAC1 assay; settings: substrate 5 μM acetyl-Gly-Ala-Lys(acetyl)-AMC
Experimental: as §1
Test 3: HDAC1 Assay Description
A similar assay procedure as described in Test 2 was used for HDAC1. Human recombinant full length HDAC1 expressed in a baculovirus expression system was purchased from BPS BioSciences (San Diego, Calif., U.S.A.). The substrate used in the […] assay was 5 μM of acetyl-Gly-Ala-Lys(acetyl)-AMC.

Human recombinant full length HDAC6, sequence (Q9UBN7 whole entry): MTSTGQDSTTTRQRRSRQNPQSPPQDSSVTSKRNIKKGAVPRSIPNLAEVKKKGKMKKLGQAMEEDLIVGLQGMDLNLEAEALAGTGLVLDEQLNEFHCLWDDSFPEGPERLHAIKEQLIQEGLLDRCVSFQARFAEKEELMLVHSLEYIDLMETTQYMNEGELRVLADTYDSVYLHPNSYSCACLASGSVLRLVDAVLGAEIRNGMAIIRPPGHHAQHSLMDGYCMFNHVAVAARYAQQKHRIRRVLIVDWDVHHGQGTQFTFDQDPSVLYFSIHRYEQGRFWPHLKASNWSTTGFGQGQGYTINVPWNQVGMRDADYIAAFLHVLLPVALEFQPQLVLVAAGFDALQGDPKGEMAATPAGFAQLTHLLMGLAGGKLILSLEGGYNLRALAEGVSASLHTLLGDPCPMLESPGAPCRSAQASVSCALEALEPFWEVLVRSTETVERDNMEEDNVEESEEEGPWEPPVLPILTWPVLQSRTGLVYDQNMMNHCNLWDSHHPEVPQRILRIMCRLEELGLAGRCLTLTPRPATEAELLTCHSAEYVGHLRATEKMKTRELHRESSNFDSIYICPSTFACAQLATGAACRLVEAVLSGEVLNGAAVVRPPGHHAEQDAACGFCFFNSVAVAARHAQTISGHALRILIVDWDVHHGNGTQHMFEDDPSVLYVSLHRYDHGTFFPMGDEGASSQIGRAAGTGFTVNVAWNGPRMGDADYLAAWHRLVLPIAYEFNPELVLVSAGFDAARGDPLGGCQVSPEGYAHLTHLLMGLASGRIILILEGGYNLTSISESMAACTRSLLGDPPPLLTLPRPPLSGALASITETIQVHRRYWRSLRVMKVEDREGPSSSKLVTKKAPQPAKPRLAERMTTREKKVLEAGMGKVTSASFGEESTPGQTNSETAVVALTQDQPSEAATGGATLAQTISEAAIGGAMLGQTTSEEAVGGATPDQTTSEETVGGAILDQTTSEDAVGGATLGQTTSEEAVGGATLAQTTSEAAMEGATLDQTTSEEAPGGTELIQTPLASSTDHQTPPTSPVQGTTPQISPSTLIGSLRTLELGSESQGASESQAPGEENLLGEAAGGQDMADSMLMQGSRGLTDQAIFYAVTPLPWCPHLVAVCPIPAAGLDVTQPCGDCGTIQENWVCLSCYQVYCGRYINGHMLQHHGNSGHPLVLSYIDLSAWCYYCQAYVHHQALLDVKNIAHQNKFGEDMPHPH
Human recombinant full length HDAC1, sequence (Q13547 whole entry): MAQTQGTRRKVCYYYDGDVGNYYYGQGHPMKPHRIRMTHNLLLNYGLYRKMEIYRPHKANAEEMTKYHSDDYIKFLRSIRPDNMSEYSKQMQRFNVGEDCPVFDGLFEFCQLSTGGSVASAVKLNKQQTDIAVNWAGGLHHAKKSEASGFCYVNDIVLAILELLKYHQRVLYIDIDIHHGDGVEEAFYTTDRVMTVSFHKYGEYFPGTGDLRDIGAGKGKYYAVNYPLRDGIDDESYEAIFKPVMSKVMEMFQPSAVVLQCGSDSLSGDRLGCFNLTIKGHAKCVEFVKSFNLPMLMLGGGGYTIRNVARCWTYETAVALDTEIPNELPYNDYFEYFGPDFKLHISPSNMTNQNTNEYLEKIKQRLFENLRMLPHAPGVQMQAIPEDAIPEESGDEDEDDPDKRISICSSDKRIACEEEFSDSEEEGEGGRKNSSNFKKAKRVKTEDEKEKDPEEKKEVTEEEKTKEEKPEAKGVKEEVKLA
Human recombinant HDAC4, sequence (P56524 2-1084): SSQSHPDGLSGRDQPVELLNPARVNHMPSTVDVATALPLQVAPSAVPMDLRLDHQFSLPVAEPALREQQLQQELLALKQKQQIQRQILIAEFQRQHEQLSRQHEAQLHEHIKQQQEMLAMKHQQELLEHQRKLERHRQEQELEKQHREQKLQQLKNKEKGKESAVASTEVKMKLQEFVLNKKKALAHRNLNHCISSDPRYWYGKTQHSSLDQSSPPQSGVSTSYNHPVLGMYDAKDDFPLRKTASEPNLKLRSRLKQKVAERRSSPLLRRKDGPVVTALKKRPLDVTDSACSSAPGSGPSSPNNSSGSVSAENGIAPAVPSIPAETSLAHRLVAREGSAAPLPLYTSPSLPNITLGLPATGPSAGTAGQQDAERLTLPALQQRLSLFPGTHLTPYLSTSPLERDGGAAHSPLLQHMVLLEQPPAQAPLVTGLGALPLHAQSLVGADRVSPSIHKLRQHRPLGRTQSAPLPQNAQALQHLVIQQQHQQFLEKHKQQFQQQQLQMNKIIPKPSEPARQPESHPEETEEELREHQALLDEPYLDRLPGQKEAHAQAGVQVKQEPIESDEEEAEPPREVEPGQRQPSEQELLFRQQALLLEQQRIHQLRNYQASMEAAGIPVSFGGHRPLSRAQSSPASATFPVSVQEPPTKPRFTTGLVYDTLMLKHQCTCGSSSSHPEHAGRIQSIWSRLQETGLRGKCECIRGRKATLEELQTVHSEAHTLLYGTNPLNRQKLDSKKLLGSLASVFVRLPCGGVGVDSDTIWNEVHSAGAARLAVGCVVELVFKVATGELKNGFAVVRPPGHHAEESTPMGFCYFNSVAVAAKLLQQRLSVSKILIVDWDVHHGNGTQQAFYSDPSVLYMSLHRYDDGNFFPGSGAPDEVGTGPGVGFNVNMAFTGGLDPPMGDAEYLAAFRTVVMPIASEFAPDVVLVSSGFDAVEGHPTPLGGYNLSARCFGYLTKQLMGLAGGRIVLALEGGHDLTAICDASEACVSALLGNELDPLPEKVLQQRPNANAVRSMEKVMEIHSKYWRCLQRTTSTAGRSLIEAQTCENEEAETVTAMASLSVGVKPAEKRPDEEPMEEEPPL

IC50 [1] | IC50 [2] | IC50 [3] | Structure (SMILES)
7.2 µM | 0.11 µM | > 10 µM | CN1CCC[C@@H](NC(=O)c2ccc(-c3noc(C(F)(F)F)n3)cc2)C1 [Example 154, (R)—N-(1-methylpiperidin-3-yl)-4-(5-(trifluoromethyl)-1,2,4-oxadiazol-3-yl)benzamide]
7.7 µM | 0.35 µM | > 10 µM | C[C@H](CO)NC(=O)c1ccc(-c2noc(C(F)(F)F)n2)cc1 [Example 28, (R)—N-(1-hydroxyypropan-2-yl)-4-(5-(trifluoromethyl)-1,2,4-oxadiazol-3-yl)benzamide]
7.05 µM | 0.08 µM | 7.6 µM | CN(C)CCNC(=O)c1ccc(-c2noc(C(F)(F)F)n2)cc1 [Example 31, N-(2-(dimethylamino)ethyl)-4-(5-(trifluoromethyl)-1,2,4-oxadiazol-3-yl)benzamide]
> 10 µM | 2.7 µM | > 10 µM | CN1CCC(CNS(=O)(=O)c2ccc(-c3noc(C(F)(F)F)n3)cc2)C1 (stereo not drawn) [Example 115, N-((1-methylpyrrolidin-3-yl)methyl)-4-(5-(trifluoromethyl)-1,2,4-oxadiazol-3-yl)benzenesulfonamide]
3.1 µM | 0.0011 µM | 1.2 µM | CCCCN(C)C[C@@H](C)NC(=O)c1ccc(-c2noc(C(F)(F)F)n2)cc1 [Example 150, (R)—N-(1-(butyl(methyl)amino)propan-2-yl)-4-(5-(trifluoromethyl)-1,2,4-oxadiazol-3-yl)benzamide]
9.6 µM | 0.001 µM | 4 µM | CCCN(C)C[C@@H](C)NC(=O)c1ccc(-c2noc(C(F)(F)F)n2)cc1 [Example 139, (R)—N-(1-(methyl(propyl)amino)propan-2-yl)-4-(5-(trifluoromethyl)-1,2,4-oxadiazol-3-yl)benzamide]
3.2 µM | 0.61 µM | > 10 µM | O=C(NCC1CC1)c1ccc(-c2noc(C(F)(F)F)n2)cc1 [Example 26, N-(cyclopropylmethyl)-4-(5-(trifluoromethyl)-1,2,4-oxadiazol-3-yl)benzamide]
6.9 µM | 0.96 µM | > 10 µM | COCCNC(=O)Cc1ccc(-c2noc(C(F)(F)F)n2)cc1 [Example 7, N-(2-methoxyethyl)-2-(4-(5-(trifluoromethyl)-1,2,4-oxadiazol-3-yl)phenyl)acetamide]
5.5 µM | 0.85 µM | > 10 µM | O=C(Cc1ccc(-c2noc(C(F)(F)F)n2)cc1)N1CCOCC1 [Example 9, 1-Morpholino-2-(4-(5-(trifluoromethyl)-1,2,4-oxadiazol-3-yl)phenyl)ethanone]
9.1 µM | 0.63 µM | > 10 µM | CN(C)S(=O)(=O)c1ccc(-c2noc(C(F)(F)F)n2)cc1 [Example 114, N,N-dimethyl-4-(5-(trifluoromethyl)-1,2,4-oxadiazol-3-yl)benzenesulfonamide]
> 10 µM | 3.2 µM | > 10 µM | O=S(=O)(N[C@@H]1CCNC1)c1ccc(-c2noc(C(F)(F)F)n2)cc1 [Example 102, (R)—N-(pyrrolidin-3-yl)-4-(5-(trifluoromethyl)-1,2,4-oxadiazol-3-yl)benzenesulfonamide]
> 10 µM | 6.4 µM | > 10 µM | CCC(CC)NC(=O)c1ccc(-c2noc(C(F)(F)F)n2)cc1 [Example 30, N-(pentan-3-yl)-4-(5-(trifluoromethyl)-1,2,4-oxadiazol-3-yl)benzamide]
> 10 µM | 1.2 µM | > 10 µM | O=C(NC1CCCC1)c1ccc(-c2noc(C(F)(F)F)n2)cc1 [Example 29, N-cyclopentyl-4-(5-(trifluoromethyl)-1,2,4-oxadiazol-3-yl)benzamide]
> 10 µM | 1.9 µM | > 10 µM | CNC(=O)Cc1ccc(-c2noc(C(F)(F)F)n2)cc1 [Example 3, N-methyl-2-[4-(5-trifluoromethyl-[1,2,4]oxadiazol-3-yl)-phenyl]-acetamide]
3.1 µM | 0.16 µM | > 10 µM | O=S(=O)(NCCCO)c1ccc(-c2noc(C(F)(F)F)n2)cc1 [Example 116, N-(3-hydroxypropyl)-4-(5-(trifluoromethyl)-1,2,4-oxadiazol-3-yl)benzenesulfonamide]
3.1 µM | 0.97 µM | > 10 µM | CC(C)NC(=O)Cc1ccc(-c2noc(C(F)(F)F)n2)cc1 [Example 5, N-Isopropyl-2-[4-(5-trifluoromethyl-[1,2,4]oxadiazol-3-yl)-phenyl]-acetamide]

Further lines, the molecule ahead of its results:

Structure (SMILES) | IC50 [1] | IC50 [2] | IC50 [3]
C[C@H](CN(C)Cc1ccccc1)NC(=O)c1ccc(-c2noc(C(F)(F)F)n2)cc1 [Example 156, (R)—N-(1-(benzyl(methyl)amino)propan-2-yl)-4-(5-(trifluoromethyl)-1,2,4-oxadiazol-3-yl)benzamide] | 2.3 µM | 0.00085 µM | 2.9 µM
CCN(CC)C[C@H](NC(=O)c1ccc(-c2noc(C(F)(F)F)n2)cc1F)C(C)C [Example 135, (R)—N-(1-(diethylamino)-3-methylbutan-2-yl)-2-fluoro-4-(5-(trifluoromethyl)-1,2,4-oxadiazol-3-yl)benzamide] | > 10 µM | 0.01 µM | > 10 µM
CC(C)N(C)C[C@@H](C)NC(=O)c1ccc(-c2noc(C(F)(F)F)n2)cc1F [Example 142, (R)-2-fluoro-N-(1-(isopropyl(methyl)amino)propan-2-yl)-4-(5-(trifluoromethyl)-1,2,4-oxadiazol-3-yl)benzamide] | 5.4 µM | 0.0072 µM | > 10 µM
C[C@H](CN1CCOCC1)NC(=O)c1ccc(-c2noc(C(F)(F)F)n2)cc1 [Example 147, (R)—N-(1-morpholinopropan-2-yl)-4-(5-(trifluoromethyl)-1,2,4-oxadiazol-3-yl)benzamide] | 6.7 µM | 0.3 µM | > 10 µM
CN1CCN(C(=O)c2ccc(-c3noc(C(F)(F)F)n3)cc2)CC1 [Example 36, (4-methylpiperazin-1-yl)(4-(5-(trifluoromethyl)-1,2,4-oxadiazol-3-yl)phenvyl)methanone] | > 10 µM | 2.7 µM | > 10 µM
Cc1cc(NC(=O)c2ccc(-c3noc(C(F)(F)F)n3)cc2F)cc(C)n1 [Example 90, N-(2,6-dimethylpyridin-4-yl)-2-fluoro-4-(5-(trifluoromethyl)-1,2,4-oxadiazol-3-yl)benzamide] | 2.5 µM | 0.44 µM | > 10 µM
CC(C)(C)c1cc(NC(=O)c2ccc(-c3noc(C(F)(F)F)n3)cc2)ccn1 [Example 69, N-(2-(tert-butyl)pyridin-4-yl)-4-(5-(trifluoromethyl)-1,2,4-oxadiazol-3-yl)benzamide] | 6.8 µM | 0.29 µM | > 10 µM
CCCN(CCC)C[C@@H](C)NC(=O)c1ccc(-c2noc(C(F)(F)F)n2)cc1F [Example 141, (R)—N-(1-(dipropylamino)propan-2-yl)-2-fluoro-4-(5-(trifluoromethyl)-1,2,4-oxadiazol-3-yl)benzamide] | 1.4 µM | 0.0014 µM | 4.2 µM
O=C(NCC1CCCCN1)c1ccc(-c2noc(C(F)(F)F)n2)cc1 (stereo not drawn) [Example 78, N-(piperidin-2-ylmethyl)-4-(5-(trifluoromethyl)-1,2,4-oxadiazol-3-yl)benzamide] | 7 µM | 0.03 µM | > 10 µM
CC(C)(C)OC(=O)N1CCC(NC(=O)c2ccc(-c3noc(C(F)(F)F)n3)cc2)C1 (stereo not drawn) [Example 66, Tert-butyl 3-(4-(5-(trifluoromethyl)-1,2,4-oxadiazol-3-yl)benzamido)pyrrolidine-1-carboxylate] | 5.8 µM | 0.33 µM | > 10 µM
O=C(NCc1ccc(CN2CCOCC2)cc1)c1ccc(-c2noc(C(F)(F)F)n2)cc1 [Example 44, N-(4-(morpholinomethyl)benzyl)-4-(5-(trifluoromethyl)-1,2,4-oxadiazol-3-yl)benzamide] | 5.7 µM | 0.38 µM | > 10 µM
O=C(Nc1ccnc(Cl)c1)c1ccc(-c2noc(C(F)(F)F)n2)cc1 [Example 75, N-(2-chloropyridin-4-yl)-4-(5-(trifluoromethyl)-1,2,4-oxadiazol-3-yl)benzamide] | > 10 µM | 0.16 µM | > 10 µM
O=C(Nc1ccnc(O)c1)c1ccc(-c2noc(C(F)(F)F)n2)cc1 [Example 72, N-(2-hydroxypyridin-4-yl)-4-(5-(trifluoromethyl)-1,2,4-oxadiazol-3-yl)benzamide] | > 10 µM | 0.14 µM | > 10 µM
O=C(c1ccc(-c2noc(C(F)(F)F)n2)cc1)N1CCC(O)C1 (stereo not drawn) [Example 54, (3-hydroxypyrrolidin-1-yl)(4-(5-(trifluoromethyl)-1,2,4-oxadiazol-3-yl)phenvyl)methanone] | > 10 µM | 2 µM | > 10 µM
